Data published in patent US20160000775A1, “USE OF HIGH DOSE LAQUINIMOD FOR TREATING MULTIPLE SCLEROSIS” (Teva Pharmaceutical Industries, Ltd., priority 2012, published 2016).
Read-outs that look alike come from different tables or passages of the source.

Assays:
subjects with RRMS [1] = assay: ALLEGRO Phase III clinical trial, laquinimod 0.6 mg over placebo, double-blind; format: in vivo, human; conditions: laquinimod 0.6 mg vs placebo, 24 months
Method: ALLEGRO and BRAVO are two clinical trials reported in, e.g., PCT International Application Publication No. WO/2010/147665 ([…] et al.). ALLEGRO was a study performed in subjects with RRMS to assess the efficacy, safety and tolerability of laquinimod 0.6 mg over placebo in a double-blind design. The treatment duration in this study was 24 months and it enrolled 1,106 patients equally distributed between laquinimod 0.6 mg and placebo arms. The primary endpoint was annualized relapse rate (ARR). Secondary endpoints were gadolinium-enhancing (GdE)-T1 and new-T2 lesions, time to Expanded Disability Status Scale (EDSS) progression confirmed at 3 months and multiple sclerosis functional composite (MSFC) z-score. In ALLEGRO the primary endpoint (ARR) and three key secondary endpoints were met.

subjects with RRMS [2] = assay: BRAVO Phase III clinical trial, laquinimod 0.6 mg over placebo with reference arm IFN-β-1a (Avonex®); format: in vivo, human; conditions: vs placebo, 24 months
Text: ALLEGRO and BRAVO are two clinical trials reported in, e.g., PCT International Application Publication No. WO/2010/147665 ([…] et al.). […] The primary endpoint was ARR. Secondary endpoints were Brain atrophy, time to EDSS progression confirmed at 3 months and MSFC z-score. […] One of the basic assumptions used to assess the sample size for the study was that treatment with laquinimod will reduce the patient population ARR by 25% or more when compared to the placebo group.

[3] = test system: subjects with relapsing remitting multiple sclerosis (RRMS); assay: Clinical trial MS-LAQ-305 (Phase III), oral laquinimod 0.6 mg/day or 1.2 mg/day vs placebo; format: in vivo, human
Method: A multinational, multicenter, randomized, double-blind, parallel-group, placebo-controlled study followed by an active treatment (clinical trial MS-LAQ-305) is conducted to evaluate the efficacy, safety and tolerability of two doses of oral administration of laquinimod (0.6 mg/day or 1.2 mg/day) laquinimod in subjects with relapsing remitting multiple sclerosis (RRMS). Study Duration • Screening period: up to 1 month. • Double-blind Placebo-controlled (DBPC) period (Period 1): At least 15 months, but not more than 24 months of once-daily, oral administration of either laquinimod 0.6 mg, 1.2 mg or matching oral placebo. DBPC period for all subjects is declared closed when all ongoing enrolled subjects complete at least 15 months of treatment. • Active-treatment (AT) period (Period 2): In this period (24 months), subjects who are assigned to either 0.6 mg or 1.2 mg daily oral laquinimod during the DBPC period continue with the same treatment assignment, whereas those who are assigned to placebo receive 1.2 mg daily oral laquinimod. Eligible subjects (approximately 1,800) are randomized in a 1:1:1 ratio into one of the following treatment arms: • 1. Laquinimod 0.6 mg: two capsules, one containing 0.6 mg laquinimod and the other containing matching placebo, administered orally once daily. • 2. Laquinimod 1.2 mg: two capsules containing 0.6 mg laquinimod administered orally once daily. • 3. Matching placebo: two capsules containing placebo (matching to the 0.6 mg) administered orally once daily. The study comprises of two treatment periods, Double-blind Placebo-controlled (DBPC) and Active-treatment (AT). Subjects who complete 24 months on study drug in Period 1 or complete at least 15 months on study drug when Period 1 is declared closed continue on to Period 2. The following assessments are performed at the specified time points: • 1. Vital signs are measured at each study visit. • 2. A physical examination is performed at months -1 (screening), 0 (baseline) 1, 3, 6, and every 6 months thereafter, ETD (if applicable) and until completion visit of Period 1. During Period 2, a physical examination is performed at months 0AT (baseline, completion visit of Period 1), 1AT, 3AT, 6AT and every 6 months thereafter, until completion/ETD of Period 2. • 3. The following safety clinical laboratory tests are performed: • (a) Complete blood count (CBC) with differential-at all scheduled visits during Periods 1 and 2. • (b) Serum chemistry (including electrolytes, liver enzymes, urea, creatinine, calculated Glomerular Filtration Rate (GFR)-at screening and prior to each MRI scan, glucose, total protein, albumin, direct and total bilirubin and pancreatic amylase)-at all scheduled visits during the DBPC and AT periods. Calculated Glomerular Filtration Rate (GFR) is done at screening and prior to each MRI scan in both study periods. • (c) Lipid profile (total cholesterol, HDL, LDL, triglycerides)-at baseline and every 12 months during the DBPC and AT periods. • (d) Urinalysis-at the screening visit. • (e) Serum β-hCG (human choriogonadotropin beta) in women of child-bearing potential-at each scheduled study visit during the DBPC and AT periods. • (f) Urine β-hCG test in women of child-bearing potential-at baseline (month 0) and at all scheduled visits during the DBPC and AT periods. • (g) Starting after visit Month 3, between scheduled visits, a rapid urine β-hCG test is performed in women of child-bearing potential every 28 (±2) days. The subject is contacted within 72 hours after the scheduled test is performed and asked specific questions regarding the test. In case of suspected pregnancy (positive urine β-hCG test result) the caller instructs the subject to make sure that the study drug has been discontinued and the subject arrives at the site as soon as possible (within 10 days) with all study drugs-during the DBPC and AT periods. • 4. […]

relapsing MS = conditions: cited from earlier work
MS = conditions: 0.3 mg/day oral (Comi, 2007); cited from earlier work
[4] = in vivo; cited from earlier work
[5] = corrected post-hoc analysis with two baseline MRI covariates
[6] = daily oral 1.2 mg compared to 0.6 mg laquinimod or placebo

For `CCN(C(=O)c1c(O)c2c(Cl)cccc2n(C)c1=O)c1ccccc1` [Laquinimod, laquinimod], the ARR % reduction (subjects with RRMS [1]) was 23%, the “Brain Atrophy (exploratory endpoint) % reduction” value (subjects with RRMS [1]) was 32.8% and the “Cumulative number of GdE T1 lesions % reduction” value (subjects with RRMS [1]) was 37%. The “Cumulative number of new T2 lesions % reduction” value (subjects with RRMS [1]) was 30%, the “EDSS Progression (3 m confirmation) % reduction” value (subjects with RRMS [1]) was 36% and the “MSFC z-score % reduction” value (subjects with RRMS [1]) was 51%. The “ARR % reduction, Corrected” value (subjects with RRMS [2]; [5]) was 21.3%, the “Brain Atrophy % reduction, Corrected” value (subjects with RRMS [2]; [5]) was 27.4% and the “Cumulative number of GdE T1 lesions % reduction, Corrected” value (subjects with RRMS [2]; [5]) was 21.7%. The “Cumulative number of new T2 lesions (exploratory endpoint) % reduction, Corrected” value (subjects with RRMS [2]; [5]) was 18.7%, the “EDSS Progression (3 m confirmation) % reduction, Corrected” value (subjects with RRMS [2]; [5]) was 33.5% and the “MSFC % reduction, Corrected” value (subjects with RRMS [2]; [5]) was 77.1%. For the same compound, the “ARR % reduction, Corrected” value (subjects with RRMS [2]; corrected post-hoc analysis with two baseline MRI covariates, listed as laquinimod) was 21.3%, the “ARR % reduction, Original” value (subjects with RRMS [2]; original analysis) was 17.7% and the “Brain Atrophy % reduction, Original” value (subjects with RRMS [2]; original analysis) was 27.6%. For the same compound, the “Cumulative number of GdE T1 lesions % reduction, Original” value (subjects with RRMS [2]; original analysis) was 21.5%, the “Cumulative number of new T2 lesions (exploratory endpoint) % reduction, Original” value (subjects with RRMS [2]; original analysis) was 16.5% and the “EDSS Progression (3 m confirmation) % reduction, Original” value (subjects with RRMS [2]; original analysis) was 31.3%. The “MSFC % reduction, Original” value (subjects with RRMS [2]; original analysis) was 77.7%, the “ARR % reduction, Original” value (subjects with RRMS [2]; original analysis, listed as laquinimod) was 17.7% and the “Efficacy in treating RRMS patients with respect to all endpoints” value ([3]; 1.2 mg/day compared to 0.6 mg/day laquinimod) was “improved efficacy”. The “Fatigue and functional status” value ([3]; 1.2 mg/day compared to 0.6 mg/day laquinimod or placebo) was “maintained or improved”, the “Time to first confirmed relapse” value ([3]; daily oral 1.2 mg compared to 0.6 mg laquinimod and placebo) was “prolonged time to first confirmed relapse” and the “Accumulation of disability as measured by the MSFC score or Timed 25-foot walk (T25FW)” value [3, 6] was “reduced the accumulation of disability”. For the same compound, the Annualized relapse rate [3, 6] was “lower annualized relapse relate”, the “Brain atrophy, percent brain volume change from baseline to month 15” value [3, 6] was “reduced brain atrophy” and the “Brain atrophy, percent change in brain volume from baseline to month 24” value [3, 6] was “reduced brain atrophy”. The “Functional status and general health, Short-Form general health survey (SF-36)” value [3, 6] was “improved functional status and general health”, the “MRI-monitored disease activity (enhancing T1, new hypointense T1, new T2 lesion numbers and lesion volume changes)” value [3, 6] was “reduced MRI-monitored disease activity” and the Neuroprotection [3, 6] was “more effective in providing neuroprotection”. The “Number of confirmed relapses” value [3, 6] was “reduced number of confirmed relapses”, the “Symbol Digit Modalities Test (SDMT) score” value [3, 6] was “improved Symbol Digit Modalities Test (SDMT) score” and the “Time to Confirmed Disease Progression (CDP)” value [3, 6] was “prolonged time to CDP”. For the same compound, the “Development of active MRI lesions” value (relapsing MS; 0.3 mg/day oral, relapsing MS (RRMS and SPMS) (Polman, 2005)) was “reduce development of active MRI lesions”, the “Development of active MRI lesions” value (relapsing MS; relapsing MS, dose not stated (Polman, 2005)) was “reduce development of active MRI lesions” and the “MRI and clinical effect as compared to placebo” value (MS) was “neither MRI nor clinical effect”. For the same compound, the Oral bioavailability [4] was “high”.
